Laboratory results taken from patent US20230256050A1, “COMPOSITIONS, METHODS AND USES COMPRISING TENEURIN C-TERMINAL ASSOCIATED PEPTIDE -1 (TCAP-1) FOR ENHANCING MUSCLE PERFORMANCE” (priority 2016, published 2023).
Where no end group is shown, it is not given here.

Columns and labels:
[1] = tested on: diacylglycerol (DAG) levels, downstream signaling of ADGRL1, C2C12 skeletal cell line; assay: Mouse diacylglycerol (DAG) ELISA in C2C12 cell lysates; format: cell-based; conditions: TCAP-1 100 nM, after 60 minutes, p<0.0001
Description: Immortalized murine skeletal cell line C2C12 cells were used for all in vitro studies. Cells were maintained at 60-70% confluency with Dulbecco’s Modified Eagle Medium (DMEM) supplemented with 20% fetal bovine serum (FBS) and penicillin/streptomycin antibiotic combination. To induce differentiation, the media was changed to DMEM supplemented with 10% horse serum and penicillin/streptomycin antibiotic combination, and cells were allowed to differentiate for 6 days (media replaced every 24 h). For treatment, cells were serum starved for 3 h and then treated with either vehicle (ddH20) or TCAP-1 (100 nM).
The protocols provided by commercial DAG and IP3 assays (MyBiosource, San Diego, California USA). Briefly, immortalized mouse C2C12 cells were prepared using the TCAP-treatment protocol described previously. Cells were added to a microELISA plate coated with purified mouse DAG or IP3 antibodies, respectively. Subsequently, 3,3′,5,5′-tetramethylbenzidine (TMB) solution was added to detect the HRP-conjugates as the colour changes. Finally, a sulphuric acid solution was added to terminate the reaction. The absorbance change was measured at a wavelength of 450 nm using a spectrophotometer (SpectraMax Plus).

C2C12 myotubes [2] = assay: Calcium imaging in live C2C12 cells (fluo-4); format: cell-based, mouse; conditions: caffeine 4 mM, TCAP-1 100 nM pre-treatment for 1 hour
Description: For live-cell fluorescence experiments, immortalized murine C2C12 skeletal muscle cells were grown and fully differentiated on Poly-D-lysine coated 25 mm round No. 1 glass coverslips (Warner Instruments, Hamden, CT, USA). Cells were grown in Dulbecco’s Modified Eagle Medium (DMEM) supplemented with 20% fetal bovine serum (FBS), 100 U/ml penicillin and 100 µg/ml streptomycin (Invitrogen, Burlington, ON, Canada), and stimulated differentiation with DMEM supplemented with 10% horse serum (HS), 100 U/ml penicillin and 100 µg/ml streptomycin (Invitrogen, Burlington, ON, Canada. Changes in intracellular calcium were assessed using the membrane-permeable calcium sensitive fluorescent indicator fluo-4, AM (Invitrogen, Burlington, ON, Canada). Cells were loaded with fluo-4 by incubating a single coverslip in DMEM containing 10 µM fluo-4 (from a 1 mM stock solution in DMSO) for 30 min (37° C.) followed by a 15 min wash in Locke’s Buffer containing (in mM): 154 mM NaCl, 4 mM NaHCOs, 5 mM KCI, 2.3 mM CaCl2, 1 mM MgCl2, 5 mM glucose and 10 mM Hepes (pH 7.4); osmolarity 305-310 mOsmol at 22° C. During loading, the acetate groups on fluo-4 are removed by intracellular esterases reducing dye leakage. In experiments assessing changes in intracellular calcium, coverslips were placed in a flow-through bath chamber (RC-40HP, Warner Instruments, Hamden, CT, USA) of an inverted microscope (Axio Observer Z1, Zeiss, Toronto, ON, Canada) equipped with a 40× oil immersion objective. Cells were continuously bulk perfused with Locke’s buffer via a gravity drip perfusion system at a rate of 2-3 ml min-1 and experiments were conducted at a room temperature (RT) of 22° C. Changes in fluo-4 fluorescence was imaged using a green fluorescent protein (GFP) filter set (Semrock, Rochester, NY, USA) and a X-Cite 120 fluorescence illumination system (Excelitas Technologies, Mississauga, ON, Canada), controlled by Volocity 4.0 imaging software (Quorum Technologies Inc., Guelph, ON, Canada). Fluorescence emissions were detected with an Orca-ER Hamamatsu B/W CCD digital camera (Hamamatsu, Middlesex, NJ, USA). Fluo-4 was excited with a wavelength of 480 nm for 100 ms every 5 sec and fluorescence emission was measured at wavelength of 516 nm. Caffeine (4 mM; Sigma Aldrich, Oakville, ON) was applied to C2C12 myotubes to stimulate calcium release from the sarcoplasmic reticulum. Cells were either pre-treated with TCAP-1 (100 nM) for 1 hour before stimulation with caffeine. Using velocity 4.0 imaging software, multiple regions of interests (ROIs) were taken from each coverslip to be analysed.

C2C12 myotubes [3] = assay: Mitochondrial membrane potential in C2C12 cells with Rhodamine-123; format: cell-based, mouse; conditions: caffeine 4 mM; TCAP-1 100 nM pre-treatment for 1 hour, compared with caffeine alone
Description: C2C12 myotubes were cultured as previously described above. Changes in mitochondrial membrane potential were assessed using fluorescent indicator Rhodamine123 (R123). Cells were loaded with R123 by incubating a single coverslip in DMEM containing 5 µM R123 (from a 1 mM stock solution in DMSO) for 30 min (37° C.) followed by a 15 min wash in Locke’s Buffer containing (in mM): 154 mM NaCl, 4 mM NaHCOs, 5 mM KCI, 2.3 mM CaCl2, 1 mM MgCl2, 5 mM glucose and 10 mM Hepes (pH 7.4); osmolarity 305-310 mOsmol at 22° C. […] Changes in R123 fluorescence was imaged using a green fluorescent protein (GFP) filter set (Semrock, Rochester, NY, USA) and a X-Cite 120 fluorescence illumination system (Excelitas Technologies, Mississauga, ON, Canada), controlled by Volocity 4.0 imaging software (Quorum Technologies Inc., Guelph, ON, Canada). Fluorescence emissions were detected with an Orca-ER Hamamatsu B/W CCD digital camera (Hamamatsu, Middlesex, NJ, USA). R123 was excited with a wavelength of 480 nm for 100 ms every 5 sec and fluorescence emission was measured at wavelength of 516 nm. […] Using velocity 4.0 imaging software, multiple regions of interests (ROIs) were taken from each coverslip to be analysed.

## TCAP-1: 41-mer peptide from the C-terminal of teneurin-1, synthesized amidated, suspended in 0.9% saline for subcutaneous injection (QQLLGTGRVQGYDGYFVLSVEQYLELSDSANNIHFMRQSEI-NH2)
[1]
  DAG levels compared to vehicle treatment: significantly decreased
C2C12 myotubes [2]; compared with caffeine alone
  peak in cytosolic calcium on caffeine application (fluo-4 fluorescence): significantly lower peak
C2C12 myotubes [2]; over 5 minutes
  decline of cytosolic calcium after the caffeine peak: significantly faster decline
C2C12 myotubes [3]
  mitochondrial membrane potential (Rhodamine123 fluorescence): significantly higher membrane depolarization
